Source: patent US20190292189A1, “LIM KINASE INHIBITORS” (VIRONGY, LLC, priority 2016, published 2019)

Legend:
[1] = tested on: resting CD4 T cells; test: Surface staining of CD25 and CD69 (T cell activation); format: cell-based, human; conditions: CD3/CD28 beads
[2] = tested on: Rev-CEM-GFP-Luc; conditions: all concentrations tested (up to 200 μM)
[3] = target: T1, DAPK1 (Homo sapiens, UniProt P53355); test: Kinase profiling at 1 μM (Reaction Biology); format: biochemical; conditions: ATP 10 μM
T1 construct: purchased Reaction Biology Corporation
Method: (§1) Profiling was carried out at Reaction Biology Corporation following a protocol described at its website: http://www.reactionbiology.com/webapps/site/. The % data were the average from two determinations. ATP concentration used: 10 μM; Staurosporine was used as the positive control.
(§2) Biochemical assays for all Limk inhibitors and kinase profiling were carried out in Reaction Biology Corporation and followed the protocols described on its website. […] Compounds were tested at 1 μM with duplicate experiments in profiling assays. […] Reactions were carried out at 10 μM ATP, 1 μM substrate cofilin, and 50 nM Limk1 (final concentrations).

[4] = target: T2, ROCK1 (Homo sapiens, UniProt Q13464); test: Kinase profiling at 1 μM (Reaction Biology); format: biochemical; conditions: ATP 10 μM
T2 construct: purchased Reaction Biology Corporation
T2 sequence (Q13464 whole entry): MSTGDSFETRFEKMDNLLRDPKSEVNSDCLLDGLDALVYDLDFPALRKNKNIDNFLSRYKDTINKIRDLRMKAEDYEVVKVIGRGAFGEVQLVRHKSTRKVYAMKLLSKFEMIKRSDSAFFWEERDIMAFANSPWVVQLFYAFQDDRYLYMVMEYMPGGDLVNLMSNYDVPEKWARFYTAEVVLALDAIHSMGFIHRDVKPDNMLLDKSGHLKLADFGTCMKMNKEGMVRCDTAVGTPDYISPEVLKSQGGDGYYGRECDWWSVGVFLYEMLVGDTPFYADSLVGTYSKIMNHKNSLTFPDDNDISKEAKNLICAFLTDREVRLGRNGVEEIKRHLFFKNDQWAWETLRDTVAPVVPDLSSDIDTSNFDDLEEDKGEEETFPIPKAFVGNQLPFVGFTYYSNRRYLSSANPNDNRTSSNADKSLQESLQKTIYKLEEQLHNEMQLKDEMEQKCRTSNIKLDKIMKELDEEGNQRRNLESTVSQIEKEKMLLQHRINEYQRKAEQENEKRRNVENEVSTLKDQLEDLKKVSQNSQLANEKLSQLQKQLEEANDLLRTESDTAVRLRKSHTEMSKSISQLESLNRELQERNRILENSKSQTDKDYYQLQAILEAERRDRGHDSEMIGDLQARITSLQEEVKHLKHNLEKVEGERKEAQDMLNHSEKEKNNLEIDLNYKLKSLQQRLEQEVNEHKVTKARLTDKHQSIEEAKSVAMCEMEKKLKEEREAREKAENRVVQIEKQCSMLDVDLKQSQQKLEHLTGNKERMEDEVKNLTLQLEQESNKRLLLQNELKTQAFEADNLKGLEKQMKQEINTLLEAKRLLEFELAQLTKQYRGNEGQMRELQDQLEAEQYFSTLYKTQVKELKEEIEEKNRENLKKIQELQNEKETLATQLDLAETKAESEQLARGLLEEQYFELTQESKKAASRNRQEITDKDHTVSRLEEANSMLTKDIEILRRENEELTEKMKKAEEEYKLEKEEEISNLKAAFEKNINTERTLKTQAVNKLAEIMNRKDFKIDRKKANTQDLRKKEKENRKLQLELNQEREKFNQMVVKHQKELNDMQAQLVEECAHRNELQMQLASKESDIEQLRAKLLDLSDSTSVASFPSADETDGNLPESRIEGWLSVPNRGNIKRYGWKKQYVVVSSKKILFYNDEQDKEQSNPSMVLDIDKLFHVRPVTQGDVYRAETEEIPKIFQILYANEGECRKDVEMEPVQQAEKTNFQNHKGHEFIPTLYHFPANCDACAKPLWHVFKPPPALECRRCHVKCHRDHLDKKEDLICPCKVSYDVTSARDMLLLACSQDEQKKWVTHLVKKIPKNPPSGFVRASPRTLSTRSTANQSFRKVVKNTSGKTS
Method: as §1, §2

[5] = target: T3, EGFR (Homo sapiens, UniProt P00533); test: Kinase profiling at 1 μM (Reaction Biology); format: biochemical; conditions: ATP 10 μM
T3 construct: purchased Reaction Biology Corporation
Method: as §1, §2

[6] = target: T4, PLK2 (Homo sapiens, UniProt Q9NYY3); test: Kinase profiling at 1 μM (Reaction Biology); format: biochemical; conditions: ATP 10 μM
T4 construct: purchased Reaction Biology Corporation
T4 sequence (Q9NYY3 whole entry): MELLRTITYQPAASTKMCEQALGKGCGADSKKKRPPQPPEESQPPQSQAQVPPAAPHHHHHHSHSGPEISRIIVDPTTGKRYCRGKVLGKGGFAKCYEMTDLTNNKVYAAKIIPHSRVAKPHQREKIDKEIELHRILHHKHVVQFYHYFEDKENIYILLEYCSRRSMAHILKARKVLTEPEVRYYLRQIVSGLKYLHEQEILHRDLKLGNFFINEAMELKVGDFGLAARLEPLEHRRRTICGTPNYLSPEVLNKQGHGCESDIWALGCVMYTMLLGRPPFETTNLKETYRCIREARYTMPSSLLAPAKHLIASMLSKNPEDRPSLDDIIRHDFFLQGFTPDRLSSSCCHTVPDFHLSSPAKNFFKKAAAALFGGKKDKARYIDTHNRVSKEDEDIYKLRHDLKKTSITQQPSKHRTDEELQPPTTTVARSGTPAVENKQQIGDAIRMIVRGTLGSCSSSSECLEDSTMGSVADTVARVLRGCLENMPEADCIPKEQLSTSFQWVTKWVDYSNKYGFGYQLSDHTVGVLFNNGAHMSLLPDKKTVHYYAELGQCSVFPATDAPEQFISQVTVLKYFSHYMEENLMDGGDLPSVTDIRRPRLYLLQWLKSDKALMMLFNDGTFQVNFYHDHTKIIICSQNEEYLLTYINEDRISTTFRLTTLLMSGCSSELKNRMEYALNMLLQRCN
Method: as §1, §2

[7] = target: T5, Aurora A (Homo sapiens, UniProt O14965); test: Kinase profiling at 1 μM (Reaction Biology); format: biochemical; conditions: ATP 10 μM
T5 construct: purchased Reaction Biology Corporation
T5 sequence (O14965 whole entry): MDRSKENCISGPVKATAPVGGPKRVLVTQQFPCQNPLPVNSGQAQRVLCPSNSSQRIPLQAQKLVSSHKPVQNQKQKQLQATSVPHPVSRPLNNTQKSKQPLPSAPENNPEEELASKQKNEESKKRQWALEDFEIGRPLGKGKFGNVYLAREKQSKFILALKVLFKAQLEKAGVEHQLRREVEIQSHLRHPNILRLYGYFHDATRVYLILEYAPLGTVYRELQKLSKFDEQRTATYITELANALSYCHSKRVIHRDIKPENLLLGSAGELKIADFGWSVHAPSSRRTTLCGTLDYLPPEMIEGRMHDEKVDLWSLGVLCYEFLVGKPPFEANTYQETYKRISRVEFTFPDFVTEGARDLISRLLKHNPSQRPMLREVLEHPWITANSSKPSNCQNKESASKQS
Method: as §1, §2

[8] = target: T6, c-MET (Homo sapiens, UniProt P08581); test: Kinase profiling at 1 μM (Reaction Biology); format: biochemical; conditions: ATP 10 μM
T6 construct: purchased Reaction Biology Corporation
T6 sequence (P08581 25-1390): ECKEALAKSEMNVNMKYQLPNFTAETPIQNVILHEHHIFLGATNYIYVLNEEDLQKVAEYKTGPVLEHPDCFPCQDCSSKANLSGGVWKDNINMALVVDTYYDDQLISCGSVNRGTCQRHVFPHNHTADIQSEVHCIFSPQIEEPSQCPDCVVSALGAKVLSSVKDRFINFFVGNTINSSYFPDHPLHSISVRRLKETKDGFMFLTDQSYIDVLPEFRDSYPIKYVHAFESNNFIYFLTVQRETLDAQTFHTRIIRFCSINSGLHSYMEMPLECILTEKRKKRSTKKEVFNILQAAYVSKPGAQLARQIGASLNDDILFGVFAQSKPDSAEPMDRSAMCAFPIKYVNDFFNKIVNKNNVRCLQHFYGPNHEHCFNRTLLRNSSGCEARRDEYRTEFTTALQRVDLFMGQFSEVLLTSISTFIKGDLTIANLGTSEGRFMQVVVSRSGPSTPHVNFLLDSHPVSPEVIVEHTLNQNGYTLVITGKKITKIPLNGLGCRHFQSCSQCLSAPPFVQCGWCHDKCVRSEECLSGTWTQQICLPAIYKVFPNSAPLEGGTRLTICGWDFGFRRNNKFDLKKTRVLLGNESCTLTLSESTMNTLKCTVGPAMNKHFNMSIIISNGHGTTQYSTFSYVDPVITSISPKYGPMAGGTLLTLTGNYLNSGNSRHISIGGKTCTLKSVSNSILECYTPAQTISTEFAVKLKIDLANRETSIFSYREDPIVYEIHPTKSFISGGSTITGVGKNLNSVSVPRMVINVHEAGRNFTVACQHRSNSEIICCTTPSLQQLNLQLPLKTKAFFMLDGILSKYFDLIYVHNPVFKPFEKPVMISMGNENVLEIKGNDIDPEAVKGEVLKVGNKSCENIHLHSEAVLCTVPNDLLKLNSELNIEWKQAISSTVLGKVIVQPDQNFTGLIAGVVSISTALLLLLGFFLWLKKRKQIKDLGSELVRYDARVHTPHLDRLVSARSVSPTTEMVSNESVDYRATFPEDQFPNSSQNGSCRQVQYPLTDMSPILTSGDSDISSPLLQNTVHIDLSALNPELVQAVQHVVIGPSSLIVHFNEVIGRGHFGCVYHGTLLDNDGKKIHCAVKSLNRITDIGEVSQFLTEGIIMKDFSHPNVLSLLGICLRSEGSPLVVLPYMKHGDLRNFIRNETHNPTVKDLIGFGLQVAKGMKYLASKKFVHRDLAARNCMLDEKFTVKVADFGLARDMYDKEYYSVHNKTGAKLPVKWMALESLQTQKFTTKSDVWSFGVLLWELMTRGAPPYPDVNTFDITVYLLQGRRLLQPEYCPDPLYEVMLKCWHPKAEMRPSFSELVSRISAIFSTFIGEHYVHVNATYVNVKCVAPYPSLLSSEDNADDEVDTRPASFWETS
Method: as §1, §2

[9] = target: T7, STK16 (Homo sapiens, UniProt O75716); test: Kinase profiling at 1 μM (Reaction Biology); format: biochemical; conditions: ATP 10 μM
T7 construct: purchased Reaction Biology Corporation
T7 sequence (O75716 whole entry): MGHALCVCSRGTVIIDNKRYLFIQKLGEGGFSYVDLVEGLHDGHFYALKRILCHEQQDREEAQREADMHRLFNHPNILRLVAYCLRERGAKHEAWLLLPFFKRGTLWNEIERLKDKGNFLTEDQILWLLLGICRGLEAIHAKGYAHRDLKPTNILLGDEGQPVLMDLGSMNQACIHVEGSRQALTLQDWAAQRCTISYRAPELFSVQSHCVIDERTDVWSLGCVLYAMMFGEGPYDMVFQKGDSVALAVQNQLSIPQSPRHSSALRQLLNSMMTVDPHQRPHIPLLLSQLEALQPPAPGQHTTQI
Method: as §1, §2

[10] = target: Limk1 (Homo sapiens, UniProt P53667); test: Kinase profiling at 1 μM (Reaction Biology); format: biochemical; set-up: His; purchased Reaction Biology Corporation; host or cells: insect cells; conditions: ATP 10 μM
Chain of Limk1 (P53667 285-638): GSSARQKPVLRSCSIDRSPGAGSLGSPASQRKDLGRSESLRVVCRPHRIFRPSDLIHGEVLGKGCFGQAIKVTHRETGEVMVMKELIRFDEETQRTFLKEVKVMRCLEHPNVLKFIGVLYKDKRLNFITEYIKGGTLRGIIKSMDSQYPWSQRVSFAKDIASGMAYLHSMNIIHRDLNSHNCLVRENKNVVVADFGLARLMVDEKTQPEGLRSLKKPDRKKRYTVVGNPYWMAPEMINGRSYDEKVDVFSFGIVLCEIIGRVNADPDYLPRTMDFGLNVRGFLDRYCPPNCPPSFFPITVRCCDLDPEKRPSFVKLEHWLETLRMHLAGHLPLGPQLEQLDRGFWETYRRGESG
Method: as §1, §2

[11] = tested on: phosphorylation of LIMK; test: Western blot of LIMK phosphorylation in CEM-SS T cells; format: cell-based, human
Method: FIG. 10. Chemical and Biochemical characterization of R10015. a, Chemical structure of R10015 and its docking into the crystal structure of LIMK1 (PDB ID 3S95, Chain A). […] CEM-SS T cells treated with R10015 (100 μM) for a time course, and the phosphorylation of cofilin, LIMK, and PAK1/2 were measured by Western Blot. Levels of each protein or GAPDH were also measured for loading control. d, R10015 inhibits Jurkat T cell chemotaxis in responding to SDF-1. e, R10015. f, R10015 inhibits chemotactic actin activity. Resting CD4 T cells were treated with R10015, and then exposed to SDF-1 for a time course. Actin polymerization were measured by FITC-phalloidin staining. g, the relative intensity of F-actin staining was also plotted.
One million cells were lysed in NuPAGE LDS Sample Buffer (Invitrogen), separated by SDS-PAGE, and then transferred onto nitrocellulose membranes (Invitrogen). The membranes were washed in TBST for 3 min and then blocked for 30 min at room temperature with Starting Block blocking buffer (Pierce). For probing with different antibodies, blots were incubated with rabbit anti-LIMK1 antibodies (Cell Signaling), with rabbit anti-p-coflin antibodies (Cell Signaling) or with a mouse anti-PAK1/2 antibody (Cell Signaling). These antibodies were diluted in 2.5% milk/TBST and rocked overnight at 4° C. […]

[12] = tested on: EBOV (Zaire ebolavirus); format: cell-based; conditions: HFF-1 cells
[13] = tested on: HIV-1(Env); test: Virion release, p24 in supernatant; format: cell-based
[14] = tested on: PC-3 cells; test: In vitro migration (wound closure) assay in PC-3 cells; format: cell-based; conditions: Homo sapiens, PC-3, 24 hours, compared to the control, read-out: inhibition of migration of PC-3 cells
Method: PC3 cells were cultured to confluence at >90% in 6 well culture dishes in 10% FBS RPMI1640 media the day before the assay. Lines were drawn with a marker on the bottom of the dishes. Using a sterile 1 mL pipet tip, the dishes were scratched three separate wounds through the cells moving perpendicular to the line drawn in the step above. The cells were rinsed with PBS twice very gently and added the RPMI1640 media, and the dishes were taken pictures using phase contrast under Leica DMI3000B microscope.

[15] = target: ROCK-II (Homo sapiens, UniProt O75116); test: ROCK-II biochemical counter-screen; conditions: read-out: ROCK-II IC50
[16] = tested on: p-cofilin in PC-3 prostate cancer cell lines; test: Cofilin phosphorylation Western blot in PC-3 cells stimulated by HGF; format: cell-based; conditions: HGF-stimulated PC-3 cells; 50 nM
Method: PC3 cells were cultured at a density of 0.5×10^6 cells/mL in 60 mm culture dishes in 10% FBS RPMI1640 media. Then, the cells were treated with DMSO and the indicated concentration of Limk inhibitors. After incubating for 24 h, the cells were rinsed with ice-cold PBS twice and collected by spinning down at 4° C. in 10,000 rpm for 5 min Cellular lysates were prepared by suspending cells in SDS sample buffer, 120 mmol/L Tris, 4% SDS, 20% glycerol, 0.1 mg/mL bromophenol blue, and 100 mmol/L DTT (pH 6.8). After brief sonication, the lysates were heated at 95° C. for 5 minutes. The cell lysates were separated by 12% SDS-PAGE and transferred to Immobilon-P membranes (Millipore Corp) Immunostaining was done using antibodies specific for phospho-Cofilin (Cell Signaling, #3313) and β-Actin (GeneScript, #A00702) antibodies and the corresponding second antibodies for whole immunoglobulins from mouse or rabbit (Amersham Biosciences). Immunoreactive proteins were detected by chemoluminescence using the Pierce ECL Western Blotting Substrate (Thermo Scientific). We quantified the actual levels of proteins by using the Multigauge ver 3.0 software (Fujifilm). The gels were stained with Coomassie Brilliant Blue R-250 (0.25%) for 1 hour and then destained (all solutions from Bio-Rad) to check the loading amount of protein samples on the gels.

[17] = target: P450 3A4 (Homo sapiens, UniProt P08684); test: P450 inhibition at 10 μM; format: in vitro ADME
Chain of P450 3A4 (P08684 whole entry): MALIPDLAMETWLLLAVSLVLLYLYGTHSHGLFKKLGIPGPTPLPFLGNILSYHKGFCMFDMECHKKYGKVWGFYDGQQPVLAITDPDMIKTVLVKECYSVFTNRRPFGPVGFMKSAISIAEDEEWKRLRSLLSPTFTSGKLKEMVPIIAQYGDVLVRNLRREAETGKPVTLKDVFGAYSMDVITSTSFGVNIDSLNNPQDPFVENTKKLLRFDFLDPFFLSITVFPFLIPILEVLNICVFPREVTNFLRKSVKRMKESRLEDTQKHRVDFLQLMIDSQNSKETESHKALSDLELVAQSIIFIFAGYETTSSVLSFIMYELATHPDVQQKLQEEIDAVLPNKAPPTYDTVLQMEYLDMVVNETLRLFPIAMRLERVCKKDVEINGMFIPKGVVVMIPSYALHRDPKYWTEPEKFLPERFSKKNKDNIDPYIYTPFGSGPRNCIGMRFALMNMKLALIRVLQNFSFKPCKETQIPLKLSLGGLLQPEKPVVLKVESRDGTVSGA

Row | Compound | T cell activation (CD25 and CD69 surface staining) [1] | cytotoxicity [2] | activity at 1 µM [3] | activity at 1 µM [4] | activity at 1 µM [5] | activity at 1 µM [6] | activity at 1 µM [7] | activity at 1 µM [8] | activity at 1 µM [9] | activity at 1 µM [10] | phosphorylation of LIMK [11] | EBOV infection [12] | viral release [13] | inhibition at 0.1 µM ([14]; 0.1 μM) | inhibition at 1 µM ([14]; 1 μM) | inhibition at 10 µM ([14]; 10 μM) | IC50 [15] | inhibition of cofilin phosphorylation in PC-3 cells (Western blot) [16] | P450 % inh. at 10 μM 3A4 [17]
1 | COC(=O)c1ccc2[nH]c(C3CCN(c4ncnc5[nH]cc(Cl)c45)CC3)nc2c1 [Compound R10015, Methyl 2-(1-(5-chloro-7H-pyrrolo[2,3-d]pyrimidin-4-yl)piperidin-4-yl)-1Hbenzo[d]imidazole-5-carboxylate] | did not inhibit T cell activation | no detectable cytotoxicity | 87.8% | 42.3% | 93.2% | 103% | 60.3% | 82.1% | 48.6% | 6.4% | did not inhibit | inhibited | inhibited |  |  |  |  |  | 
2 | Cc1c[nH]c2ncnc(-c3ccc(NC(=O)N(CCO)c4ccccc4)cc3)c12 [Compound 18b, 1-(2-Hydroxyethyl)-3-(4-(5-methyl-7H-pyrrolo[2,3-d]pyrimidin-4-yl)phenyl)-1-phenylurea] |  |  |  |  |  |  |  |  |  |  |  |  |  | 16.5% | 74% | 77.5% | 6.57 µM | significant inhibition | 13%
